Test results from paper PMC7617456, “Cryptosporidium lysyl-tRNA synthetase inhibitors define the interplay between solubility and permeability required to achieve efficacy” (Science translational medicine, 2024).

Experiments:
[1] = test system: transgenic C. parvum that express NanoLuciferase; assay: NOD SCID Gamma chronic mouse efficacy model; assay type: in vivo; details: 50 mg/kg BID oral 7 days from day 36 PI
Protocol: We next developed a mouse efficacy model that mimics chronic infection. In this model, NOD SCID Gamma mice were allowed to become highly infected (>10^9 RLU) and maintain this for a minimum of one week before compound treatment was administered (Fig. 4C). To achieve efficacy against this chronic infection, compounds must kill more parasites, offering a more rigorous method for assessing suitability for progression.
Male NOD SCID Gamma mice (NOD.Cg-Prkdc^scid Il2rgtm1Wjl/SzJ; purchased from Charles Rivers) aged 10 weeks old were used (n = 4 mice per experimental group). Mice were infected by oral gavage (5,000 oocysts of Δtk::mNeon-Neo^R). Oocyst shedding in feces was determined by NanoLuciferase assay as described above. Once infection became chronic (at least 1 week of fecal RLUs/g at >10^9), compounds were administered. DDD489 was prepared in HPMC without DMSO and administered by oral gavage at 50 mg/kg starting day 36 post infection. Early lead compound DDD706 served as the positive control (administered at 20 mg/kg QD). Fecal samples were pooled from all mice in the cage on days indicated.

[2] = biological target: CYP450 3A4 (Homo sapiens, UniProt P08684); assay: CYP450 inhibition 3A4; assay type: in vitro ADME
CYP450 3A4, sequence (P08684 whole entry): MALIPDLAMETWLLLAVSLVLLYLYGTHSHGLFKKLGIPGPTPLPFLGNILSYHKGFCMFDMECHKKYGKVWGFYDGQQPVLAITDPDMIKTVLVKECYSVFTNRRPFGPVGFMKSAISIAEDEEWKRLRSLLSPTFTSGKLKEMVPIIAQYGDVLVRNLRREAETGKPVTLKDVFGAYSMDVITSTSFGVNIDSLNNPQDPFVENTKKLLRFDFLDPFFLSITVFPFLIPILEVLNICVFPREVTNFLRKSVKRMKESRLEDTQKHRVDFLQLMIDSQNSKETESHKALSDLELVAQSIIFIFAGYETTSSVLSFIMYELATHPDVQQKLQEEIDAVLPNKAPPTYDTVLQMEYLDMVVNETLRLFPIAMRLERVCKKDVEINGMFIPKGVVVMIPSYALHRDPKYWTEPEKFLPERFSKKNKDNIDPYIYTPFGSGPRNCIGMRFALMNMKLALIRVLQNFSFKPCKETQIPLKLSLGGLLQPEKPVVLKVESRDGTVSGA
Protocol: (§1) CYP450 inhibition (Dundee)
(§2) As previously described.(31)
(§3) DDD489 and DDD508 were evaluated for their ability to induce reverse mutations both in the presence and absence of S9 mix at the histidine locus in the genome of four strains of Salmonella typhimurium (TA98, TA100, TA1535, and TA97a) and at the tryptophan locus in the genome of Escherichia coli WP2 uvrA in a mini-Ames study conducted at WuXi App Tec […]
(§4) hERG inhibition (WuXi App Tec)
(§5) DDD489 and DDD508 were evaluated for their effects on cloned hERG potassium channels stably expressed in Chinese Hamster Ovary (CHO) cells using manual patch-clamp technique in a hERG inhibition assay conducted at WuXi App Tec (Suzhou).
(§6) Mitochondrial toxicity (Cyprotex)
(§7) DDD489 and DDD508 were evaluated for their effects on mitochondrial function in a functional mitochondrial toxicity assay using Seahorse XFe96 flux analyser conducted at […]
(§8) 44 screen safety panel (Eurofins)
(§9) DDD489 was evaluated for off-target effects in a SafetyScreen44 panel at Eurofins Cerep.
(§10) All regulated procedures, at the University of Dundee, on living animals were carried out under the authority of a project license issued by the Home Office under the Animals (Scientific Procedures) Act 1986, as amended in 2012 (and in compliance with EU Directive EU/2010/63). […]

[3] = biological target: CYP450 2C19 (Homo sapiens, UniProt P33261); assay: CYP450 inhibition 2C19; assay type: in vitro ADME
CYP450 2C19, sequence (P33261 whole entry): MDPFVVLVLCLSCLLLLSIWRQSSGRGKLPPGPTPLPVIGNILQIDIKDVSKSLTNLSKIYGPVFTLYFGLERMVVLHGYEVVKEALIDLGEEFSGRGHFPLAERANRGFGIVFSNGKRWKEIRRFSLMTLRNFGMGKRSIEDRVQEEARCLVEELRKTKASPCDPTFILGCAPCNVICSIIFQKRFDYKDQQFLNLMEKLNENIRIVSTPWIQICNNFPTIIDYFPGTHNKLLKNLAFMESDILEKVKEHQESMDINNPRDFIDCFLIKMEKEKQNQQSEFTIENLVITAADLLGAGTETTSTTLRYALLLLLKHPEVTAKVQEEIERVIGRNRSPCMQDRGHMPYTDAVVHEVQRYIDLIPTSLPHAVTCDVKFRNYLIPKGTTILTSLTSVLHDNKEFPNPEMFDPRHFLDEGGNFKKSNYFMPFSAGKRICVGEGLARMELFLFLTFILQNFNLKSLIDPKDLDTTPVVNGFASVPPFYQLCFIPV
Protocol: as §1, §2, §3, §4, §5, §6, §7, §8, §9, §10

[4] = biological target: T1, 5-HT transporter (h) (Homo sapiens, UniProt P31645); assay: SafetyScreen44 panel: 5-HT transporter; assay type: binding
T1 construct: Eurofins Cerep
T1 sequence (P31645 whole entry): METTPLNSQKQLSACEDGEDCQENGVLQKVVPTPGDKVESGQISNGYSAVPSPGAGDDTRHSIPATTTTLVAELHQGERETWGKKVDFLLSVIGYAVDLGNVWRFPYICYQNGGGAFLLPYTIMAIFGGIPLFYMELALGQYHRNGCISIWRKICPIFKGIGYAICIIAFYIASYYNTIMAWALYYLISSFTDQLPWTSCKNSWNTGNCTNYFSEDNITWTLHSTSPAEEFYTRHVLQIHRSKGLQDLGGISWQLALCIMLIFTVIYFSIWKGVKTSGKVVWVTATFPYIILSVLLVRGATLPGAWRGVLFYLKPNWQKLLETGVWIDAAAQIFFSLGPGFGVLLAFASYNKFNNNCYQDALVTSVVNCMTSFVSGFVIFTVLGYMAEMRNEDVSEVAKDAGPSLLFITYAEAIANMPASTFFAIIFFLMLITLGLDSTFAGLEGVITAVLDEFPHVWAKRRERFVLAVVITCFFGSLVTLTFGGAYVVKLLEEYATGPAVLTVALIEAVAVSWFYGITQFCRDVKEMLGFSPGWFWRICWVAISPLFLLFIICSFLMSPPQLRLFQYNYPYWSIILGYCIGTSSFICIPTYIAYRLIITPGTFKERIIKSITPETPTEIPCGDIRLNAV
Text: as §2
Table S2. ADME properties and in vitro assessment of toxicity/off-target effects for DDD489 and […]
Data are from a single biological replicate. (A) In vitro ADME properties. FaSSIF is Fasted State Simulated Intestinal Fluid Solubility. MDCK-MDR1 is a Madin-Darby canine kidney cell line transfected with the MDR1 gene, encoding for the efflux protein, P-glycoprotein (P-gp). Papp is apparent permeability, measured in the presence of P-gp inhibitor, GF120918. Efflux ratio is calculated as the ratio of Papp B-A/A-B. CHIlogD is chromatographic hydrophobicity index logD, measured at pH 7.4. clogP is calculated logP, determined by […]
Heps Cli is liver hepatocyte intrinsic clearance,
PPB is plasma protein binding.
Data quoted is percent bound. M=mouse, r=rat, d=dog, b=bovine, h=human. (B) In vitro toxicity assays. Cyp450
IC50 is cytochrome p450 enzyme inhibition. Mini-Ames was conducted in the presence and absence of S9 mix in four strains of Salmonella typhimurium. hERG IC50 is human ether-a-go-go related gene inhibition, measured using manual patch-clamp technique. (C) Mitochondrial toxicity assay data. (D) In a safety p anel of receptors and […]

[5] = Dog pharmacokinetics; assay type: in vivo
Protocol: Dog pharmacokinetics (WuXi App Tec)
As for mouse except using male beagle dogs (IV dose volume: 3 mg/mL; dose vehicle: 10% DMSO, 40% PEG400, 50% (40%HP-β-CD in water); PO dose volume: 2 mg/mL; dose vehicle: 1% CMC-Na(800-1200)+0.2% Tween 80 in water). Pharmacokinetic parameters were derived from the blood concentration-time curve using WinNonLin Professional Software v 6.3 (Pharsight Corporation). […]

[6] = biological target: CYP450 1A2 (Homo sapiens, UniProt P05177); assay: CYP450 inhibition 1A2; assay type: in vitro ADME
CYP450 1A2, sequence (P05177 whole entry): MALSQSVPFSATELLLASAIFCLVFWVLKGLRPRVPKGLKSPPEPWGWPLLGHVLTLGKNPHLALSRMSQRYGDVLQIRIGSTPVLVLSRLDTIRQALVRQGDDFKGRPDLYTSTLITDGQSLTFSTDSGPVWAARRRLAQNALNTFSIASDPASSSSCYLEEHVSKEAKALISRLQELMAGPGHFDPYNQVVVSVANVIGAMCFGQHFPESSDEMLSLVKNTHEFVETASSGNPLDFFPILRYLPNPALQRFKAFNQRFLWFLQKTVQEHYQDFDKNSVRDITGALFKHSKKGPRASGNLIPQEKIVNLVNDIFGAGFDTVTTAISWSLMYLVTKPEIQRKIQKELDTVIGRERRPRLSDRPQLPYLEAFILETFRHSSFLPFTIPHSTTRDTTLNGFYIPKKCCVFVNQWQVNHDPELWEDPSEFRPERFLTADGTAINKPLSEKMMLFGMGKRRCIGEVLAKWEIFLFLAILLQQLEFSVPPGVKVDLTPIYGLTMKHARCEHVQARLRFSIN
Protocol: as §1, §2, §3, §4, §5, §6, §7, §8, §9, §10

[7] = male, beagle, whole blood, dog PO 10 mg/kg

SMILES | parasite shedding by end of treatment period [1] | recrudescence [1] | IC50 [2] | IC50 [3] | inhibition at 10 µM [4] | CLB ([5]; dog IV 3 mg/kg, clearance in blood) | half-life ([5]; male, beagle, whole blood, 3 mg/kg, dog, IV, read-out: T½ (converted)) | Vd ([5]; male, beagle, whole blood, 3 mg/kg, dog, IV, read-out: Vdss) | AUC ([5]; male, beagle, whole blood, dog IV 3 mg/kg) | AUC [5, 7] | Cmax [5, 7] | Tmax [5, 7] | bioavailability ([5]; male, beagle, whole blood, dog PO 10 mg/kg, read-out: F (oral bioavailability)) | IC50 [6]
Nc1nc2c(c(C(F)(F)F)n1)C(=O)N(CC1CCCC(C(F)(F)F)C1)C2 (centres unmarked) [DDD489] | reduce parasite shedding below the LOQ | failed to prevent recrudescence | > 100 µM | > 100 µM | 62% | 52 mL/min/kg | 1.7 h | 4.2 L/kg | 1000 ng·h/mL | 667 ng·h/mL | 200 ng/mL | 1.2 h | 18% | 40 µM
O=C(NCC1(O)CCCCC1)c1cc(=O)c2cc(O)ccc2o1 [DDD508] |  |  | > 100 µM | > 100 µM |  |  |  |  |  |  |  |  |  | > 100 µM
